Measurements as given in ChEMBL document CHEMBL4251615, “Discovery of anilino-furo[2,3-d]pyrimidine derivatives as dual inhibitors of EGFR/HER2 tyrosine kinase and their anticancer activity” (Eur J Med Chem, 2018).

How the values were obtained:
Type in all cases: functional
[1] = test system: TK-10; assay: Growth inhibition of human TK10 cells assessed as cell growth at 10 uM incubated for 48 hrs by sulforhodamine B assay relative to control; conditions: TK-10, 48 h, read-out: Activity
[2] = test system: HCT-15; assay: Growth inhibition of human HCT15 cells assessed as cell growth at 10 uM incubated for 48 hrs by sulforhodamine B assay relative to control; conditions: HCT-15, 48 h, read-out: Activity
[3] = test system: MDA-MB-468; assay: Growth inhibition of human MDA-MB-468 cells assessed as cell growth at 10 uM incubated for 48 hrs by sulforhodamine B assay relative to control; conditions: MDA-MB-468, 48 h, read-out: Activity
[4] = test system: HCC 2998; assay: Growth inhibition of human HCC2998 cells assessed as cell growth at 10 uM incubated for 48 hrs by sulforhodamine B assay relative to control; conditions: HCC 2998, 48 h, read-out: Activity
[5] = test system: MDA-MB-231; assay: Growth inhibition of human MDA-MB-231 cells assessed as cell growth at 10 uM incubated for 48 hrs by sulforhodamine B assay relative to control; conditions: MDA-MB-231, 48 h, read-out: Activity
[6] = test system: HCT-116; assay: Growth inhibition of human HCT116 cells assessed as cell growth at 10 uM incubated for 48 hrs by sulforhodamine B assay relative to control; conditions: HCT-116, 48 h, read-out: Activity
[7] = test system: HOP-92; assay: Growth inhibition of human HOP92 cells assessed as cell growth at 10 uM incubated for 48 hrs by sulforhodamine B assay relative to control; conditions: HOP-92, 48 h, read-out: Activity
[8] = test system: SF-539; assay: Growth inhibition of human SF539 cells assessed as cell growth at 10 uM incubated for 48 hrs by sulforhodamine B assay relative to control; conditions: SF-539, 48 h, read-out: Activity
[9] = test system: M14; assay: Growth inhibition of human M14 cells assessed as cell growth at 10 uM incubated for 48 hrs by sulforhodamine B assay relative to control; conditions: M14, 48 h, read-out: Activity
[10] = test system: CAKI-1; assay: Growth inhibition of human Caki1 cells assessed as cell growth at 10 uM incubated for 48 hrs by sulforhodamine B assay relative to control; conditions: CAKI-1, 48 h, read-out: Activity
[11] = test system: SF-268; assay: Growth inhibition of human SF268 cells assessed as cell growth at 10 uM incubated for 48 hrs by sulforhodamine B assay relative to control; conditions: SF-268, 48 h, read-out: Activity
[12] = test system: UO-31; assay: Growth inhibition of human UO31 cells assessed as cell growth at 10 uM incubated for 48 hrs by sulforhodamine B assay relative to control; conditions: UO-31, 48 h, read-out: Activity
[13] = test system: SK-MEL-28; assay: Growth inhibition of human SK-MEL-28 cells assessed as cell growth at 10 uM incubated for 48 hrs by sulforhodamine B assay relative to control; conditions: SK-MEL-28, 48 h, read-out: Activity
[14] = test system: NCI-H322M; assay: Growth inhibition of human NCI-H322M cells assessed as cell growth at 10 uM incubated for 48 hrs by sulforhodamine B assay relative to control; conditions: read-out: Activity
[15] = test system: MCF7; assay: Growth inhibition of human MCF7 cells assessed as cell growth at 10 uM incubated for 48 hrs by sulforhodamine B assay relative to control; conditions: MCF7, 48 h, read-out: Activity
[16] = test system: SW-620; assay: Growth inhibition of human SW620 cells assessed as cell growth at 10 uM incubated for 48 hrs by sulforhodamine B assay relative to control; conditions: SW-620, 48 h, read-out: Activity
[17] = test system: SNB-75; assay: Growth inhibition of human SNB75 cells assessed as cell growth at 10 uM incubated for 48 hrs by sulforhodamine B assay relative to control; conditions: SNB-75, 48 h, read-out: Activity
[18] = test system: Malme-3M; assay: Growth inhibition of human MALME-3M cells assessed as cell growth at 10 uM incubated for 48 hrs by sulforhodamine B assay relative to control; conditions: read-out: Activity
[19] = test system: SF-295; assay: Growth inhibition of human SF295 cells assessed as cell growth at 10 uM incubated for 48 hrs by sulforhodamine B assay relative to control; conditions: SF-295, 48 h, read-out: Activity
[20] = test system: SK-MEL-2; assay: Growth inhibition of human SK-MEL-2 cells assessed as cell growth at 10 uM incubated for 48 hrs by sulforhodamine B assay relative to control; conditions: SK-MEL-2, 48 h, read-out: Activity
[21] = test system: RXF 393; assay: Growth inhibition of human RXF393 cells assessed as cell growth at 10 uM incubated for 48 hrs by sulforhodamine B assay relative to control; conditions: RXF 393, 48 h, read-out: Activity
[22] = test system: HT-29; assay: Growth inhibition of human HT-29 cells assessed as cell growth at 10 uM incubated for 48 hrs by sulforhodamine B assay relative to control; conditions: HT-29, 48 h, read-out: Activity
[23] = test system: RPMI-8226; assay: Growth inhibition of human RPMI8226 cells assessed as cell growth at 10 uM incubated for 48 hrs by sulforhodamine B assay relative to control; conditions: RPMI-8226, 48 h, read-out: Activity
[24] = test system: NCI-H226; assay: Growth inhibition of human NCI-H226 cells assessed as cell growth at 10 uM incubated for 48 hrs by sulforhodamine B assay relative to control; conditions: NCI-H226, 48 h, read-out: Activity
[25] = test system: A498; assay: Growth inhibition of human A498 cells assessed as cell growth at 10 uM incubated for 48 hrs by sulforhodamine B assay relative to control; conditions: A498, 48 h, read-out: Activity
[26] = test system: CCRF-CEM; assay: Growth inhibition of human CCRF-CEM cells assessed as cell growth at 10 uM incubated for 48 hrs by sulforhodamine B assay relative to control; conditions: read-out: Activity

SMILES | growth at 10 µM [1] [%] | growth at 10 µM [3] [%] | growth at 10 µM [4] [%] | growth at 10 µM [5] [%] | growth at 10 µM [6] [%] | growth at 10 µM [7] [%] | growth at 10 µM [8] [%] | growth at 10 µM [9] [%] | growth at 10 µM [10] [%] | growth at 10 µM [11] [%] | growth at 10 µM [12] [%] | growth at 10 µM [13] [%] | growth at 10 µM [14] [%] | growth at 10 µM [16] [%] | growth at 10 µM [17] [%] | growth at 10 µM [18] [%] | growth at 10 µM [20] [%] | growth at 10 µM [21] [%] | growth at 10 µM [22] [%] | growth at 10 µM [23] [%] | other results
CCOC(=O)c1c(C)oc2ncnc(Nc3ccc(F)c(Cl)c3)c12 | 114 | 112 | 109 | 101 | 103 | 72.1 | 104 | 110 | 106 | 97.6 | 88.5 | 110 | 101 | 101 | 113 | 114 | 95.5 | 101 | 92.8 | 101 | growth at 10 µM [2]: 112%; growth at 10 µM [15]: 104%; growth at 10 µM [19]: 97%; growth at 10 µM [24]: 94.6%; growth at 10 µM [25]: 87.4%
CCOC(=O)c1c(C)oc2ncnc(Nc3cccc(F)c3)c12 | 95.9 | 96.5 | 103 | 91.7 | 88.1 | 88.3 | 99.4 | 98.2 | 92 | 102 | 101 | 98.2 | 106 | 94.2 | 107 | 131 | 92.9 | 97.6 | 89.8 | 107 | growth at 10 µM [2]: 95.3%; growth at 10 µM [26]: 98.8%; growth at 10 µM [15]: 95.4%; growth at 10 µM [19]: 94.8%; growth at 10 µM [24]: 101%; growth at 10 µM [25]: 75.9%
CCOC(=O)c1c(C)oc2ncnc(Nc3ccc(F)cc3)c12 | 96.5 | 103 | 108 | 86.8 | 98.9 | 90.8 | 93.6 | 103 | 97.9 | 98.5 | 92.4 | 97.5 | 101 | 94.9 | 94.7 | 95.4 | 103 | 99.8 | 95.3 | 103 | growth at 10 µM [26]: 31.3%; growth at 10 µM [24]: 100%; growth at 10 µM [25]: 80.4%
Cc1oc2ncnc(Nc3cccc(F)c3)c2c1C(=O)NCCO | 90.1 | 106 | 114 | 91.2 | 105 | 101 | 90.9 | 109 | 90.5 | 101 | 96.5 | 104 | 104 | 103 | 92.2 | 118 | 103 | 109 | 96.8 | 106 | growth at 10 µM [26]: 117%; growth at 10 µM [24]: 106%; growth at 10 µM [25]: 83%
CCCNC(=O)c1c(C)oc2ncnc(Nc3cccc(Cl)c3)c12 | 94.1 | 81.7 | 123 | 88.2 | 105 | 57.2 | 99.1 | 115 | 101 | 95.5 | 72.4 | 112 | 103 | 106 | 94.6 | 121 | 85.6 | 111 | 93.8 | 95.4 | growth at 10 µM [2]: 101%; growth at 10 µM [26]: 93.9%; growth at 10 µM [15]: 93.5%; growth at 10 µM [19]: 90.1%; growth at 10 µM [24]: 90%; growth at 10 µM [25]: 74.3%
Cc1oc2ncnc(Nc3ccccc3)c2c1C(=O)NCCO | 122 | 109 | 103 | 75 | 99.3 | 88.6 | 88.6 | 106 | 90.8 | 99.8 | 87.7 | 99 | 108 | 95.1 | 90.7 | 107 | 113 | 104 | 106 | 94.8 | growth at 10 µM [2]: 98%; growth at 10 µM [26]: 97.4%; growth at 10 µM [15]: 98.6%; growth at 10 µM [19]: 100%; growth at 10 µM [24]: 106%; growth at 10 µM [25]: 78.2%
Cc1cccc(Nc2ncnc3oc(C)c(C(=O)NCCN4CCOCC4)c23)c1 | 98.7 | 89.4 | 97.1 | 81.8 | 117 | 97.6 | 95.4 | 99.8 | 90.2 | 93.3 | 75.6 | 100 | 101 | 98.9 | 82.4 | 97.2 | 106 | 86.3 | 104 | 89.5 | growth at 10 µM [2]: 94.9%; growth at 10 µM [26]: 99.7%; growth at 10 µM [15]: 96.2%; growth at 10 µM [19]: 94%; growth at 10 µM [24]: 94.9%; growth at 10 µM [25]: 68.9%
Cc1oc2ncnc(Nc3cccc(Cl)c3)c2c1CO | 65.2 | 69.1 | 93.2 | 76.5 | 81.6 | 90.5 | 91.6 | 94 | 53.7 | 92.9 | 56.9 | 106 | 95 | 93.2 | 86.5 | 88.1 | 98.1 | 85.4 | 90.5 | 70.4 | growth at 10 µM [2]: 67.3%; growth at 10 µM [26]: 100%; growth at 10 µM [15]: 89.7%; growth at 10 µM [19]: 93.2%; growth at 10 µM [24]: 80.6%; growth at 10 µM [25]: 51.6%
